From US10787413B2, “Derivatives of curcuminoids and use thereof as an anticancer agent” (CHINA MEDICAL UNIVERSITY, priority 2016, dated 2020)
Where two headings read alike, the source gives them in different places.

Assays:
PC3 prostate cancer cell = test: MTT cell viability assay, PC3 prostate cancer cell; assay type: cell-based
Experimental: (§1) Cell viability was evaluated by measuring the reduction in MTT to yield blue formazan. Cells were cultured in 96-well plates, allowed to attach overnight, and then treated with compounds. After treatment, MTT solution (1 mg/ml) was added to each well, and plates were incubated for another 4 h. Medium were removed, blue formazan was dissolved in DMSO, and the absorbance was read at 570 nm^20.

[1] = test system: HCT-116 colon cancer cell; test: MTT cell viability assay, HCT-116 colon cancer cell; assay type: cell-based; conditions: Homo sapiens
Experimental: as §1

[2] = test system: MDA-MB-231 breast cancer cell; test: MTT cell viability assay, MDA-MB-231 breast cancer cell; assay type: cell-based, human; conditions: for IC50: Homo sapiens
Experimental: Cell viability was evaluated by measuring the reduction in MTT to yield blue formazan. Cells were cultured in 96-well plates, allowed to attach overnight, and then treated with compounds. After treatment, MTT solution (1 mg/ml) was added to each well, and plates were incubated for another 4 h.

[3] = Preliminary acute toxicity assay; conditions: oral 500 mg/kg/day for 5 consecutive days, 21 days observation, vs untreated control
Experimental: Normal mice were treated with 21a or 35a by oral route at 500 mg/kg/day for 5 consecutive days, following by 21 days of post-treatment observation. […] Detailed data for their toxicology and safety pharmacology studies will be carried out in the near future.
Female nu/nu mice (5 weeks old) were P.O. with vehicle (propylene glycol, 0.1 ml) or high dose of 21a (250 and 500 mg/kg) and 35a (500 mg/kg) for 5 days followed by observation of behavior and lethargy for 21 days.

[4] = test system: Doxorubicin-resistant MDA-MB-231; test: Cell viability, Doxorubicin-resistant MDA-MB-231; assay type: cell-based
Experimental: as §1

[5] = PC-3, treated 24 hours, read-out: IC50 24 hours
[6] = PC-3, treated 48 hours, read-out: IC50 48 hours
[7] = PC-3, treated 72 hours, read-out: IC50 72 hours
[8] = HCT-116, treated 24 hours, read-out: IC50 24 hours
[9] = HCT-116, treated 48 hours, read-out: IC50 48 hours
[10] = HCT-116, treated 72 hours, read-out: IC50 72 hours
[11] = MDA-MB-231, 24 h, MDA-MB-231, treated 24 hours, read-out: IC50 24 hours
[12] = MDA-MB-231, 48 h, MDA-MB-231, treated 48 hours, read-out: IC50 48 hours
[13] = MDA-MB-231, 72 h, MDA-MB-231, treated 72 hours, read-out: IC50 72 hours

SMILES: CCOc1cc(/C=C/C(=O)/C=C(O)/C=C/c2ccc(OC(=O)C(CC)(CO)CO)c(OCC)c2)ccc1OC(=O)C(CC)(CO)CO [Compound 27, ((1E,3Z,6E)-3-hydroxy-5-oxohepta-1,3,6-triene-1,7-diyl)bis(2-ethoxy-4,1-phenylene) bis(2,2-bis(hydroxymethyl)butanoate)]
- IC50 (PC3 prostate cancer cell; [5]): 8.18 ± 1.89 µM
- IC50 (PC3 prostate cancer cell; [6]): 4.46 ± 0.15 µM
- IC50 (PC3 prostate cancer cell; [7]): 3.06 ± 0.29 µM
- IC50 [1, 8]: 3.79 ± 0.03 µM
- IC50 [1, 9]: 3.18 ± 0.26 µM
- IC50 [1, 10]: 2.97 ± 0.13 µM
- IC50 [2, 11]: 8.04 ± 0.17 µM
- IC50 [2, 12]: 7.43 ± 1.36 µM
- IC50 [2, 13]: 5.49 ± 0.52 µM
- melting point: 161 to 162 °C

SMILES: CCOc1cc(/C=C/C(=O)/C=C(O)/C=C/c2ccc(OC(=O)C(C)(CO)CO)c(OCC)c2)ccc1OC(=O)C(C)(CO)CO [Compound 26, ((1E,3Z,6E)-3-hydroxy-5-oxohepta-1,3,6-triene-1,7-diyl)bis(2-ethoxy-4,1-phenylene) bis(3-hydroxy-2-(hydroxymethyl)-2-methylpropanoate)]
- IC50 (PC3 prostate cancer cell; [5]): 9.38 ± 0.01 µM
- IC50 (PC3 prostate cancer cell; [6]): 9.53 ± 0.36 µM
- IC50 (PC3 prostate cancer cell; [7]): 5.36 ± 0.07 µM
- IC50 [1, 8]: 8.33 ± 0.39 µM
- IC50 [1, 9]: 4.22 ± 0.05 µM
- IC50 [1, 10]: 3.79 ± 0.1 µM
- IC50 [2, 11]: 18.43 ± 0.15 µM
- IC50 [2, 12]: 8.85 ± 0.66 µM
- IC50 [2, 13]: 6.58 ± 0.81 µM
- melting point: 153 to 155 °C

SMILES: COc1cc(/C=C/C(=O)C(CO)(CO)C(=O)/C=C/c2ccc(OC(=O)C(C)(CO)CO)c(OC)c2)ccc1OC(=O)C(C)(CO)CO [Compound 40, ((1E,6E)-4,4-bis(hydroxymethyl)-3,5-dioxohepta-1,6-diene-1,7-diyl)bis(2-methoxy-4-phenylene) bis(3-hydroxy-2-(hydroxymethyl)-2-methylpropanoate)]
- IC50 (PC3 prostate cancer cell; [5]): > 100 µM
- IC50 (PC3 prostate cancer cell; [6]): > 100 µM
- IC50 (PC3 prostate cancer cell; [7]): 74.6 ± 2.04 µM
- IC50 [1, 8]: > 100 µM
- IC50 [1, 9]: 69.1 ± 3.11 µM
- IC50 [1, 10]: 58.04 ± 0.53 µM
- IC50 [2, 11]: > 100 µM
- IC50 [2, 12]: 84.9 ± 1.67 µM
- IC50 [2, 13]: 57.9 ± 2.73 µM
- melting point: 234 to 237 °C

SMILES: COc1cc(/C=C/C(O)=C/C(=O)/C=C/c2ccc(OC(=O)C(C)(CO)CO)c(OC)c2)ccc1O [Compound 21b, 4-((1E,4Z,6E)-5-Hydroxy-7-(4-hydroxy-3-methoxyphenyl)-3-oxohepta-1,4,6-trien-1-yl)-2 methoxyphenyl 3-hydroxy-2-(hydroxymethyl)-2-methylpropanoate]
- IC50 (PC3 prostate cancer cell; [5]): 24.6 ± 0.83 µM
- IC50 (PC3 prostate cancer cell; [6]): 26.8 ± 0.74 µM
- IC50 (PC3 prostate cancer cell; [7]): 17.4 ± 1.37 µM
- IC50 [1, 8]: 35.6 ± 2.5 µM
- IC50 [1, 9]: 20.4 ± 0.61 µM
- IC50 [1, 10]: 15.5 ± 0.16 µM
- IC50 [2, 11]: 13.2 ± 1.2 µM
- IC50 [2, 12]: 9.97 ± 1.12 µM
- IC50 [2, 13]: 5.94 µM
- melting point: 104 to 105 °C

SMILES: COc1cc(/C=C/C(=O)C(C)(C)C(=O)/C=C/c2ccc(OC(=O)C(C)(CO)CO)c(OC)c2)ccc1OC(=O)C(C)(CO)CO [Compound 35a, ((1E,6)-4,4-Dimethyl-3,5-dioxohept-1,6-diene-1,7-diyl)bis(2-methoxy-4,1-phenylene) bis(3-hydroxy-2-(hydroxymethyl)-2-methylpropanoate)]
- IC50 (PC3 prostate cancer cell; [5]): 3.49 ± 0.4 µM
- IC50 (PC3 prostate cancer cell; [7]): 1.76 ± 0.14 µM
- body weight and behavior change [3]: no significant difference
- IC50 [1, 8]: 6.67 ± 0.43 µM
- IC50 [1, 9]: 3.35 ± 0.09 µM
- IC50 [1, 10]: 1.65 ± 0.16 µM
- IC50 [2, 11]: 5.33 ± 0.69 µM
- IC50 [2, 13]: 1.98 µM
- times more potent than curcumin (IC50) ([2]; MDA-MB-231, 72 h treatment, curcumin IC50 16.23 μM): 8.2 times
- times greater inhibitory activity than curcumin ([4]; Doxorubicin-resistant MDA-MB-231): 10 times
- IC50 ([4]; Homo sapiens, MDA-MB-231, 24 h, Doxorubicin-resistant MDA-MB-231, treated for 24 h): 5.7 µM

SMILES: CCC(CC)(C(=O)/C=C/c1ccc(OC(=O)C(C)(CO)CO)c(OC)c1)C(=O)/C=C/c1ccc(OC(=O)C(C)(CO)CO)c(OC)c1 [Compound 35b, ((1E,6E)-4,4-Diethyl-3,5-dioxohepta-1,6-diene-1,7-diyl)bis(2-methoxy-4,1-phenylene) bis(3-hydroxy-2-(hydroxymethyl)-2-methylpropanoate)]
- IC50 (PC3 prostate cancer cell; [5]): 8.7 ± 0.14 µM
- IC50 (PC3 prostate cancer cell; [6]): 3.67 ± 0.25 µM
- IC50 (PC3 prostate cancer cell; [7]): 2.16 ± 0.12 µM
- IC50 [1, 8]: 7.71 ± 0.03 µM
- IC50 [1, 10]: 1.74 ± 0.02 µM
- IC50 [2, 11]: 8.64 ± 0.27 µM
- IC50 [2, 13]: 2 ± 0.02 µM
- melting point: 189 to 191 °C

SMILES: COc1ccc(/C=C/C(=O)CC(=O)/C=C/c2ccc(OC)c(OC(=O)C(C)(CO)CO)c2)cc1O [Compound 24b, 5-((1E,6E)-7-(3-Hydroxy-4-methoxyphenyl)-3,5-dioxohepta-1,6-dien-1-yl)-2-methoxyphenyl 3-hydroxy-2-(hydroxymethyl)-2-methylpropanoate]
- IC50 (PC3 prostate cancer cell; [5]): 8.37 ± 0.81 µM
- IC50 (PC3 prostate cancer cell; [6]): 3.75 ± 0.18 µM
- IC50 (PC3 prostate cancer cell; [7]): 2.32 ± 0.05 µM
- IC50 [1, 8]: 7.57 ± 1.02 µM
- IC50 [1, 9]: 3.84 ± 0.41 µM
- IC50 [1, 10]: 1.95 ± 0.15 µM
- IC50 [2, 11]: 7.69 ± 0.82 µM
- IC50 [2, 12]: 1.99 ± 0.99 µM
- IC50 [2, 13]: 2.29 µM
- melting point: 184 to 186 °C
